Source: patent US20120190613A1, “ECHINOCANDIN DERIVATIVES” (priority 2009, published 2012)
Marks after values point to notes of the source that are not given here.

Tested on: C. albicans R303
Assay: Mouse candidiasis infection model, C. albicans density in kidneys
Assay type: in vivo, female CD-1 mice
Settings: for Difference from 24-hr control / Mean log10 CFU/kidneys (±SD): Second run, 5 mg/kg IP 2 hr after infection; for Difference from 24-hr control / Mean log10 CFU/kidneys (±SD) / Difference from 24-h control / Mean log10 CFU/kidneys (±SEM): kidneys at 24 hr
Description: The objective of these studies was to evaluate the efficacy of test compounds in the mouse candidiasis infection model.
The strain, C. albicans R303 was transferred from frozen storage onto Sabauroud dextrose agar (SDA) plates and grown for ˜24 hr at 35° C. The inoculum was prepared by transferring colonies from the plate to phosphate buffered saline (PBS) and the concentration adjusted to 10^6 CFU/mL with the aid of a spectrophotometer. The stock was diluted 1:9 to prepare the inoculum. Prior to each run the concentration was verified using the dilution plate count method.
The female CD-1 mice used in this study were obtained from Charles River Laboratories, Portage, MI. The animals were approximately seven-weeks-old at the start of the study and weighed about 16-26 g.
In one approach, mice were made neutropenic with IP injections of cyclophosphamide (150 mg/kg in 10 mL/kg) at 4 and 1 day before inoculation. Each animal was inoculated with the appropriate concentration by injecting 0.1 mL of inoculum into a tail vein. The test compounds were administered IP at 2 hr after infection.
The kidneys were collected from four mice in control group 1 (untreated) at 2 hr after infection, and from the remaining mice in the study at 24 hr after infection. Kidneys were removed aseptically from each mouse and were combined in a sterile tube. An aliquot (2 mL) of sterile PBS was added to each tube and the contents homogenized with a tissue homogenizer (Polytron 3100). Serial dilutions of the tissue homogenates were conducted and 0.1 mL aliquots were spread on SDA plates and the plates incubated at 35° C. overnight. The CFU/kidneys were determined from colony counts. Data were analyzed using one-way ANOVA with the Tukey-Kramer Multiple Comparisons Test (GraphPad InStat version 3.06, GraphPad Software, San Diego, Calif.).
Treatments were administered at 2 hr after infection with 2.1×10^5 CFU/mL of the organism. Data are the means of four mice.
Treatments were administered at 2 hr after infection with 6.4×10^5 CFU/mL of the organism. Data are the means of four mice.
Treatments were administered at 2 hr after infection with 3.8×10^5 CFU/mL of the organism. Data are the means of four mice.
Treatments were administered at 2 hr after infection with 3.8×10^5 CFU/rnL of the organism. Data are the means of four mice.

[1] = Fourth run, 0.5 mg/kg IP 2 hr after infection
[2] = Fourth run, 1.5 mg/kg IP 2 hr after infection
[3] = Fourth run, 4.5 mg/kg IP 2 hr after infection

SMILES | Difference from 24-hr control | Mean log10 CFU/kidneys (±SD) [log10 CFU/kidneys] | also measured
CCCCCOc1ccc(-c2ccc(-c3ccc(C(=O)NC4CC(O)C(OCCOCCOCCOC)NC(=O)C5C(O)C(C)CN5C(=O)C(C(C)O)NC(=O)C(C(O)C(O)c5ccc(O)cc5)NC(=O)C5CC(O)CN5C(=O)C(C(C)O)NC4=O)cc3)cc2)cc1 (centres unmarked) [Compound 20] | −3.27*** log10 CFU/kidneys | 1.93 ± 0.44 | 
CCC(C)CC(C)CCCCCCCCC(=O)NC1CC(O)C(NCCNC(=O)OCCOCCOCCOC)NC(=O)C2C(O)CCN2C(=O)C(C(O)CCN)NC(=O)C(C(O)C(O)c2ccc(O)cc2)NC(=O)C2CC(O)CN2C(=O)C(C(C)O)NC1=O (centres unmarked) [Compound 12] | −0.78 ns log10 CFU/kidneys | 4.42 ± 0.14 | 
CCCCCOc1ccc(-c2ccc(-c3ccc(C(=O)NC4CC(O)C(OCCOC)NC(=O)C5C(O)C(C)CN5C(=O)C(C(C)O)NC(=O)C(C(O)C(O)c5ccc(O)cc5)NC(=O)C5CC(O)CN5C(=O)C(C(C)O)NC4=O)cc3)cc2)cc1 (centres unmarked) [Compound 18] | −3.44*** log10 CFU/kidneys | 1.76 ± 0.44 | 
CCC(C)CC(C)CCCCCCCCC(=O)NC1CC(O)C(NCCOCCOCCOCCOC)NC(=O)C2C(O)CCN2C(=O)C(C(O)CCN)NC(=O)C(C(O)C(O)c2ccc(O)cc2)NC(=O)C2CC(O)CN2C(=O)C(C(C)O)NC1=O (centres unmarked) [Compound 16] |  |  | Difference from 24-h control [1]: −0.16 ns log10 CFU/kidneys; Mean log10 CFU/kidneys (±SEM) [1]: 5.05 ± 0.12 log10 CFU/kidneys; Difference from 24-h control [2]: −0.04 ns log10 CFU/kidneys; Mean log10 CFU/kidneys (±SEM) [2]: 5.16 ± 0.03 log10 CFU/kidneys; Difference from 24-h control [3]: −0.42 ns log10 CFU/kidneys; Mean log10 CFU/kidneys (±SEM) [3]: 4.78 ± 0.18 log10 CFU/kidneys; Effect on density of C. albicans in the kidneys (Fourth run, all dose levels (0.5, 1.5, 4.5 mg/kg)): ineffective
CCC(C)CC(C)CCCCCCCCC(=O)NC1CC(O)C(NCCN)NC(=O)C2C(O)CCN2C(=O)C(C(O)CCNC(=O)OCCOC)NC(=O)C(C(O)C(O)c2ccc(O)cc2)NC(=O)C2CC(O)CN2C(=O)C(C(C)O)NC1=O (centres unmarked) [Compound 14] | −1.13 ns log10 CFU/kidneys | 4.07 ± 0.17 | 
CCC(C)CC(C)CCCCCCCCC(=O)NC1CC(O)C(NCCN)NC(=O)C2C(O)CCN2C(=O)C(C(O)CCNC(=O)OCCOCCOCCOC)NC(=O)C(C(O)C(O)c2ccc(O)cc2)NC(=O)C2CC(O)CN2C(=O)C(C(C)O)NC1=O (centres unmarked) [Compound 15] | −0.45 ns log10 CFU/kidneys | 4.75 ± 0.20 | 
